Data on one compound can be found in PubChem BioAssay (NCI).

What all share (assay): growth of human tumour cells (NCI), 48 h
In experiment [1] the test system is BT-549 breast.
Experiment [2] relates to DLD-1 colon.
Experiment [3] deals with DMS 114 small cell lung.
Experiment [4] relates to KM20L2 colon.
Experiment [5] deals with LXFL 529 NSCLC.
Experiment [6] deals with M19-MEL melanoma.
Experiment [7] concerns MCF7 breast.
Experiment [8] concerns MDA-MB-231 breast.
Experiment [9] has as its system MDA-MB-435.
In experiment [10] the test system is NCI/ADR-RES ovarian.
Experiment [11] concerns PC-3 prostate.
Experiment [12] has as its system SNB-78 CNS.

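Protocol summary: plate cells (96-well), add compound at 5 concentrations, incubate 48 h, interpolate endpoints linearly. GI50: concentration for 50% inhibition of growth. TGI: total growth inhibition.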

Consider `c1ccc([P+](CCC[P+](c2ccccc2)(c2ccccc2)c2ccccc2)(c2ccccc2)c2ccccc2)cc1`, for which the GI50 in experiment [1] is 7.44 µM; in experiment [7], 6.79 µM; in experiment [8], 23 µM; in experiment [9], 4.84 µM; in [10], greater than 100 µM; in experiment [11] it was 3.26 µM. Also, the TGI in experiment [1] is greater than 100 µM; in experiment [2] it was greater than 100 µM; in [3], 71 µM; in experiment [4], greater than 100 µM; in [5], greater than 100 µM; in experiment [6], greater than 100 µM. Moreover, the TGI in experiment [7] is greater than 100 µM; in [8], greater than 100 µM; in experiment [9], greater than 100 µM; in experiment [10], greater than 100 µM; in experiment [11] it was 81.1 µM; in experiment [12] it was greater than 100 µM.
